Series [1] concerns partial sciatic nerve ligation model in rats. Description: Analgesic effect in a Seltzer model, Evaluation (2): mechanical hyperalgesia, analgesy meter paw pressure test. It is filed as in vivo. Particulars: rat, oral administration, 10 mg/kg, at 3 hours. The source says:
(§1) Rats were anaesthetized using isoflurane/O2 inhalation anaesthesia. After induction of anesthesia, the left thigh was shaved. An incision was made in the skin just below the hip bone. The muscle was bluntly dissected to expose the sciatic nerve. One third (⅓) to one half (½) of the sciatic nerve thickness was tightly ligated and the wound was closed. The right thigh is used as a sham-operated control. The right thigh undergoes an identical procedure with the left hind limb, however, the sciatic nerve is not manipulated or ligated.
Mechanical hyperalgesia was eavaluated using an analgesy meter. Two weeks after nerve ligation, the paw pressure test was performed using an analgesy meter (stimulus pressure increased 16 g per second) to obtain paw withdrawal thresholds (PWT). Measurements were made on both sides of the hind paw and to obtain pre-dose PWT. The rats showing the threshold change from 60 to 90 g (in nerve ligated side) and 100 to 175 g (in sham operated side) were used in the experiments. On the day before the experiment, the rats have their hind paws set on the apparatus to familiarize them with the test procedure. […] Post-dose PWT of the right and left hind paws were measured at approximately 1 to 5 hours after drug administration. Percent reversal of mechanical hyperalgesia for each rat was calculated using the following formula. […]

A further series concerns rat model of cystitis. Put plainly: Evaluation of the urinary function in a rat model of cystitis (acetic acid infusion, cystometry). Particulars: oral administration of 30 mg/kg. In kind it is in vivo. The source says: A rat was fixed in the supine position after being given anesthesia through the inhalation of 2% isoflurane (Anesthetic background: Nitrous oxide: Oxygen=7:3). A midline incision was made in its abdomen to expose the bladder. A cannula (made by) processing a polyethylene tube (PE-50: Becton Dickinson)) was inserted through a small incision on top of the bladder and fixed to create a bladder fistula. The other end of the cannula was led through the hypodermal tissue to the back, and the muscular coat and skin were sutured. The cannula, which was led to the back, was protected with a stainless spring in the middle and connected to the cannula swivel. […]
Three days after the acetic acid infusion, the other end of the cannula inserted into the bladder was connected to a T shape stopcock and then the intravesical pressure was recorded continuously using a pressure amplifier while infusing warmed normal saline solution at a rate of 3.0 mL/hr from one side and through a pressure transducer on the other side. The baseline of the intravesical pressure was measured (for approximately 40 minutes) after a measurement for stable duration (for approximately 20 minutes). After that, a vehicle, positive control compound or test compound wore administered, and the value after administration was measured for approximately 120 minutes. […]

The next series has as its target CYP1A2 (Homo sapiens (Human), UniProt P05177). Put plainly: CYP inhibition test, pooled human hepatic microsome, 7-ethoxyresorufin O-deethylation. In kind it is in vitro ADME. Particulars: substrate ethoxyresorufin. How it is done:
(§2) Using commercially available pooled human hepatic microsome, and employlng, as markers, 7-ethoxyresorufin O-deethylation (CYP1A2), tolbutamide methyl-hydroxylation (CYP2C9), mephenyloin 4′-hydroxylation (CYP2C19), dextromethorphan O-demethylation (CYP2D6), and terfenedine hydroxylation as typical substrate metabolism reactions of human main five CYP enzyme forms (CYP1A2, 2C9, 2C19, 2D6, 3A4), an inhibitory degree of each metabolite production amount by a test compound was assessed.
(§3) The reaction conditions were as follows: substrate, 0.5 μmol/L ethoxyresorufin (CYP1A2), 100 μmol/L tolbutamide (CYP2C9), 50 μmol/L S-mephenitoin (CYP2C19), 5 μmol/L dextromethorphan (CYP2D6), 1 μmol/L terfenedine (CYP3A4) reaction time, 15 minutes; reaction temperature, 37° C; enzyme, pooled human hepatic microsome 0.2 mg protein/mL; test drug concentration, 1.0, 5.0, 10, 20 μmol/L (four points).
(§4) Each five kinds of substrates, human hepatic microsome, or a test drug in 50 mmol/L Hepes buffer as a reaction solution was added to a 96-well plate at the composition as described above, NADPH, as a cofactor was added to initiate metabolism reactions as markers and, after the incubation at 37° C. for 15 minutes, a methanol/acetonitrile=1/1 (v/v) solution was added to stop the reaction. After the centrifugation at 3000 rpm for 15 minutes, resorufin (CYP1A2 metabolite) in the supernatant was quantified by a fluorescent multilabel counter and tributamide hydroxide (CYP2CP metabolite), mephenyloin 4′ hydroxide (CYP2C19 metabolite), […] (CYP2D6 metabolite), and terfenadine alcohol (CYP3A4 metabolite) were quantified by LC/MS/MS.

In the next series the target is CYP2C9 (Homo sapiens (Human), UniProt P11712). Description: CYP inhibition test, pooled human hepatic microsome, tolbutamide methyl-hydroxylation. In kind it is in vitro ADME. The settings on record: substrate tolbutamide. On the procedure: as §2, §3, §4
Chain of CYP2C9 (P11712 whole entry): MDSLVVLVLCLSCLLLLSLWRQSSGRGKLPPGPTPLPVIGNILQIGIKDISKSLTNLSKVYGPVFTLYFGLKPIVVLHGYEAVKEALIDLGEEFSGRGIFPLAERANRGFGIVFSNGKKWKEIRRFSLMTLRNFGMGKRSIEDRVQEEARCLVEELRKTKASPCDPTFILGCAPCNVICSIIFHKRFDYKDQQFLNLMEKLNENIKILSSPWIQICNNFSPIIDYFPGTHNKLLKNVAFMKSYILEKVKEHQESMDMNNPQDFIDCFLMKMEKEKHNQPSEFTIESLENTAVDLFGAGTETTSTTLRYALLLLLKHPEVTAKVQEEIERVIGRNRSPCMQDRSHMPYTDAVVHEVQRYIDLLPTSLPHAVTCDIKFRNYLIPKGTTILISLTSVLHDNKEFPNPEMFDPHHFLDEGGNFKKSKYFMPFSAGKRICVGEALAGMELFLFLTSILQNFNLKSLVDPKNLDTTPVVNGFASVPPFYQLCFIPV
Series [2] in a line: Bioavailability (BA) test. It is filed as in vivo. Particulars: plasma; mice or SD rats, oral vs intravenous AUC. On the procedure:
(1) Animals: Mice or SD rats were used
(2) Breeding conditions: Mice or SD rats were allowed to freely take solid food and sterilized tap water.
(3) Dose and grouping: orally or intravenously administered at a predetermined dose; grouping was as follows (Dose depends one the compound) • Oral administration: 0.3 to 30 mg/kg (n=2 to 3) • Intravenous administration: 0.5 to 10 mg/kg (n=2 to 3)
(4) Preparation of dosing solution: for oral administration, in a solution or a suspension state: for intravenous administration, in a solubilized state
(5) Administration method: in oral administration, forcedly administer into ventriculus with oral probe; in intravenous administration, administer from caudal vein with a needle-equipped syringe
(6) Evaluation items: blood was collected over time, and the plasma concentration of drug was measured by LC/MS/MS
(7) Statistical analysis: regarding the transition of the plasma concentration or the present compound, the area under the plasma concentration-time curve (AUC) was calculated by non-linear least squares program WinNonlin (Registered trade name), and the bioavailability (BA) was calculated the AUCs of the oral administration group and intravenous administration group

For a further series, the target named is CYP2C19 (Homo sapiens (Human), UniProt P33261). Put plainly: CYP inhibition test, pooled human hepatic microsome, mephenytoin 4'-hydroxylation. It is filed as in vitro ADME. The settings on record: substrate S-mephenitoin. How it is done: as §2, §3, §4
Chain of CYP2C19 (P33261 whole entry): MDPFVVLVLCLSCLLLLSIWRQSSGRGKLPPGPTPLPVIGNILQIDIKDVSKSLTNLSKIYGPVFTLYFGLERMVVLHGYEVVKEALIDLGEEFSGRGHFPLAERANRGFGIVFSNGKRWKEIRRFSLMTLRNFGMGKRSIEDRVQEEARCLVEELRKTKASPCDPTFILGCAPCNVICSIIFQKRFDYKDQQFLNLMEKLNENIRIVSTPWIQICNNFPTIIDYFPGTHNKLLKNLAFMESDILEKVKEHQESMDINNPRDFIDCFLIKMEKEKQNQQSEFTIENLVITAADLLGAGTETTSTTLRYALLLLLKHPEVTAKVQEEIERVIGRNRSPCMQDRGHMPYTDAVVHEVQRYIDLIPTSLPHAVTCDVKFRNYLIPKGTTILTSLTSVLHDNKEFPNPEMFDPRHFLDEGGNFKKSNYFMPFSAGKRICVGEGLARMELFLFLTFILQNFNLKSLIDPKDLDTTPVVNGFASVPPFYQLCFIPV
For a further series, the target named is CYP3A4 (Homo sapiens (Human), UniProt P08684). Description: CYP inhibition test, pooled human hepatic microsome, terfenedine hydroxylation. In kind it is in vitro ADME. The settings on record: substrate terfenedine. On the procedure: as §2, §3, §4
Chain of CYP3A4 (P08684 whole entry): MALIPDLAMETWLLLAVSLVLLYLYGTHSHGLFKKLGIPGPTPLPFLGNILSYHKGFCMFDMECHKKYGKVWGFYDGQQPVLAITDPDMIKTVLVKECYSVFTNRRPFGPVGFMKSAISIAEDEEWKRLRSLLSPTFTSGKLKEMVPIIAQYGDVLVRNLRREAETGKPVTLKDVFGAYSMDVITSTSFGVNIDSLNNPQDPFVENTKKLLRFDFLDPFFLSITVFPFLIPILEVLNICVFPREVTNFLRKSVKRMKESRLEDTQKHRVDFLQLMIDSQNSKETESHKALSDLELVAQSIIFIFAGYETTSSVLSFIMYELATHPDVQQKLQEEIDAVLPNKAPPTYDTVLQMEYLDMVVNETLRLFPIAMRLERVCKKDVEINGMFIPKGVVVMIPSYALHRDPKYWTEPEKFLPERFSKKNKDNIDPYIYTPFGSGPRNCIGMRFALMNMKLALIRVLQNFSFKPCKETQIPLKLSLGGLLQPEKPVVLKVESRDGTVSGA
The next series deals with CYP2D6 (Homo sapiens (Human), UniProt P10635). Description: CYP inhibition test, pooled human hepatic microsome, dextromethorphan O-demethylation. It is filed as in vitro ADME. Particulars: substrate dextromethorphan. How it is done: as §2, §3, §4
Chain of CYP2D6 (P10635 whole entry): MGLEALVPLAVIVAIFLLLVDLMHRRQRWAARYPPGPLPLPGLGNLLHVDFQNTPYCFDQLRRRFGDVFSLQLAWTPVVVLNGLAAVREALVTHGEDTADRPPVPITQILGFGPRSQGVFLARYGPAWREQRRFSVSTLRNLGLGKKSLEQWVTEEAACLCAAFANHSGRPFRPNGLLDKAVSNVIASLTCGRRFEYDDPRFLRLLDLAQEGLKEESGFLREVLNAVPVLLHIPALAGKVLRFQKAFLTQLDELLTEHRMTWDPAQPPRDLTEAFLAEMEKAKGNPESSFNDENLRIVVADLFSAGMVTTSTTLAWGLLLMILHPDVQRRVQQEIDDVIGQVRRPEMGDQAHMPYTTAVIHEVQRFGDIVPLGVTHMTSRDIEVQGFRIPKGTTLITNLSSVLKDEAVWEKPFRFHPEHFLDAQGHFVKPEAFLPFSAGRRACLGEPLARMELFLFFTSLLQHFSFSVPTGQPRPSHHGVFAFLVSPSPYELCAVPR
For the next series, the target named is human P2X3 receptor (Homo sapiens (Human), UniProt P56373). Description: Evaluation of human P2X3 receptor inhibitory activity (Fluo-3 calcium fluorescence, FDSS 3000, ATP stimulation).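 Note: stimulus was 50 nM ATP with fluorescence followed for 3 min, and the response per well was peak post-ATP fluorescence divided by the reading at measurement start.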 In kind it is cell-based.
Chain of human P2X3 receptor (P56373 whole entry): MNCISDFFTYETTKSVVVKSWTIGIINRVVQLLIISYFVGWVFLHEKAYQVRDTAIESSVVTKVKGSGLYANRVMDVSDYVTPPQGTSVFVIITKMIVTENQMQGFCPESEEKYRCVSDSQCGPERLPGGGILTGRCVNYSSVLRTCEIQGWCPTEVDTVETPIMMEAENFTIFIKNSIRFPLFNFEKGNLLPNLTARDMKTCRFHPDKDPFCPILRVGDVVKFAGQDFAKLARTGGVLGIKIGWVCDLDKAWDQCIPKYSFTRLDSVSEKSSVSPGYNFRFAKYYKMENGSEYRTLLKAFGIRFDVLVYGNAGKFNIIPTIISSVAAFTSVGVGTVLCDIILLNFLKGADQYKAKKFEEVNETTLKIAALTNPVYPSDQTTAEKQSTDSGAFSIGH
The next series deals with serum. Put plainly: Protein binding test (equilibrium dialysis, serum). It is filed as in vitro ADME. The settings on record: 37° C., 24 hours, 2 μg/mL. On the procedure: The unbound fraction the present compound in serum was measured using serum of various species.
The reactive conditions are as follows: Evaluation method, Equilibrium dialysis; Reaction time, 24 hours; Reaction temperature, 37° C.; Concentration of the present compound, 2 μg/mL.
The test solution was added to each serum and the mixture was agitated to prepare the serum samples at the concentration mentioned above. Each serum sample was added into one side or the cell and phosphate buffered saline (PBS) was added into the other side to perform equilibrium dialysis at 37° C. for 24 hours. Then, the concentration of the compounds in the samples that were obtained from both sides was measured by LC/MS/MS.
(Result) The ratio of PBS concentration to serum concentration is expressed as unbound fraction.
(Equilibrium dialysis compares concentrations on both sides of a semipermeable membrane.)

Series [3] has as its system partial sciatic nerve ligation model in rats. Description: Analgesic effect in a Seltzer model, Evaluation (1): mechanical allodynia, von Frey filaments. It is filed as in vivo. The settings on record: rat, oral single administration, at 3 hours, read-out: analgesic effect, percent reversal of mechanical allodynia.
Description: as §1
Two weeks after nerve ligation, the effect on mechanical allodynia was assessed using a series of von Frey filaments. For habituation, the rats were placed into a plastic cage on a wire mesh bottom. The mechanical sensitivity (mechanical threshold) of the hind paws was estimated with a series of von Frey filaments (0.4-20 g). The measurement of mechanical sensitivity of the right and left hind paws was performed to obtain predose mechanical sensitivity. The rats showing thee threshold change from 0.6 to 2 g (in nerve ligated side) and 8 to 15 g (in sham operated side) were used in the experiments. On the day belone the experiment, the rats were evaluated with a series of von Frey filaments to familiarize them with the test procedure. The adopted animal was administrated with the test compounds. The test compounds were homogenized with mortar and pestle and suspended or diluted in 0.5% Methyl Cellulose to prepare 0.1-2.0 mg/mL/kg suspension and orally administered to rat using a syringe attached with a sonde. Post-dose mechanical sensitivities of the right and left hind paws were measured at approximately 1 to 5 hours after drug administration. Percent reversal of mechanical allodynia for each rat was calculated using the following formula. The analgesic effects of the compounds were compared.

[4] abbreviates: human P2X3 receptor, Test Example 1.

The structures appear in SMILES notation.

For orientation: IC50 means the concentration needed to halve the response being measured. The bioavailability is the share of a dose that reaches the circulation, judged against a reference dose that is usually intravenous.

Chain of CYP1A2 (P05177 whole entry): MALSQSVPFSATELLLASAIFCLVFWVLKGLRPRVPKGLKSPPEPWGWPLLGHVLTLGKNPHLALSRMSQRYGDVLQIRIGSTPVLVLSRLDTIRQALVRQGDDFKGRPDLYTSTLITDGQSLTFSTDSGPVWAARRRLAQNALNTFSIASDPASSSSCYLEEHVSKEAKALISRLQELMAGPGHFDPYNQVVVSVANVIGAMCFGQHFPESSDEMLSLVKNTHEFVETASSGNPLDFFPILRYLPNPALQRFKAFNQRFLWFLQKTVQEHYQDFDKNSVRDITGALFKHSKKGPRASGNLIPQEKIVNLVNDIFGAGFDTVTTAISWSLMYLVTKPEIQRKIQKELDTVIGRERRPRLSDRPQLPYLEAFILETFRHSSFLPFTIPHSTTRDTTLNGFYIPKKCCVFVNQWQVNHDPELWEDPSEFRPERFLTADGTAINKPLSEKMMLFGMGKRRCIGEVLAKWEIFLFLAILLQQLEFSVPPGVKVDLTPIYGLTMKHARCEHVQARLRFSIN

As to `CC(C)Oc1ccc(Nc2nc(=O)n(CC(C)(C)C(=O)O)c(=O)n2Cc2ccc(Cl)cc2)cc1F` [Compound I-0364], in series [1], the “analgesic effect, percent reversal of mechanical hyperalgesia” value turned out to be 56.7 % reversal. For the same compound, in the series with rat model of cystitis, the “improvements in the urinary function in the voided volume per urination” value is given as 88% and the “improvements in the urinary function in the voiding interval” value is reported as 74.8%.

For the compound `COC(=O)[C@@H](C)Cn1c(=O)[nH]/c(=N\c2cccc(C3C=CCCC3)c2)n(Cc2ccc(C)cc2)c1=O` (stereo partly drawn) [Compound I-1079], the IC50 on CYP1A2, against CYP2C9, on CYP2C19, on CYP3A4 and on CYP2D6 was over 20000 nM each time. This compound also registered a bioavailability in series [2] of over 99.9%.

As to `CNC(=O)c1cc(Oc2ccc(/N=c3\[nH]c(=O)n(C)c(=O)n3Cc3ccc(Cl)cc3)cc2)ccn1` [Compound I-2011], the IC50 at human P2X3 receptor (C6BU-1 cells stably expressing human P2X3 receptor) is 10 nM. Further, the “unbound fraction (ratio of PBS concentration to serum concentration)” value in the series with serum worked out at 0.5%.

`CC(CO)(CO)Cn1c(=O)[nH]/c(=N\c2ccc(Oc3ccon3)cc2)n(Cc2ccc(Cl)cc2)c1=O` [Compound I-2369]: the IC50 on human P2X3 receptor (setting [4]) stood at 3 nM. Also, the inhibition in vivo at 3 mg/kg in series [3] was over 30%.

Regarding `Cn1c(=O)[nH]/c(=N\c2ccc(Oc3cnc(C#N)cn3)cc2)n(Cc2ccc(Cl)cc2)c1=O` [Compound I-2428], the IC50 at human P2X3 receptor (setting [4]) came out at 5 nM. Moreover, the inhibition in vivo at 3 mg/kg in series [3] was over 30%.

The record behind these values is US9718790B2, “Triazine derivative and pharmaceutical composition having an analgesic activity comprising the same” (SHIONOGI & CO., LTD., priority 2010, dated 2017).
